Results from publication PMC11992225, “Antibacterial compounds against non-growing and intracellular bacteria” (npj Antimicrobials and Resistance, 2025).

Legend:
non-growing UPEC CFT073 = test: Dose-dependent killing analysis (CFU spot-plating) of stationary-phase UPEC; format: cell-based, Escherichia coli
Procedure: To differentiate between these scenarios, we used CFU counting by agar plating to assess the bactericidal effect on non-growing bacteria. […] Conversely, if no significant reduction in CFU is observed, the regrowth delay is due to PAE without killing. […] Fluoroquinolones are known to cause PAE after treatment of growing bacterial cultures.
For survival analysis, bacteria were cultivated as described for the dose–response dilution-regrowth assay. Assays with UPEC were conducted at the CBCS screening facility using 96-well plates with a 200 μl sample volume, and compounds were dispensed using the Echo® (Labcyte) system. P. aeruginosa and S. aureus samples were treated according to the protocol used for the dilution-regrowth experiments. Treated samples were serially diluted 10-fold in PBS, and 10 μl drops were spot-plated onto rectangular LB agar plates using either a Beckman NXP robot (for UPEC) or an Integra VIAFLO96 electronic pipette (for P. aeruginosa and S. aureus). The LB agar plates were incubated overnight at 37 °C and scanned. Colonies were counted at the spots of the lowest dilution where individual colonies could be accurately distinguished. Each colony was manually marked on a separate image layer using the GNU Image Manipulation Program, and counted using NIST’s Integrated Colony Enumerator (NICE 1.4) software. The experiments were performed in three biological replicates.

[1] = test system: intracellular S. flexneri 5a M90T in TC7 cells; test: microbe, parasite or virus in culture; format: cell-based, Shigella flexneri
Excerpt: Nonproliferating bacterial pathogens frequently inhabit intracellular environments, but establishing relevant infection models for high-throughput testing is challenging. Therefore, we firstly tested ability of the hit compounds to cross the eukaryotic cytoplasmic membrane barrier and inhibit growth of S. flexneri within the cytoplasm of the TC7 human colon adenocarcinoma cell line[59]. To this end, we developed a new, fluorescence-based method that enables real-time monitoring of growth of intracellular Shigella. We used S. flexneri 5a M90T strain producing the AfaE adhesin that enhances bacterial adhesion to epithelial cells and allows synchronization of invasion. The strain was further modified to constitutively express super-folder GFP (sfGFP), which enables monitoring bacterial growth by fluorescence measurement. The epithelial cells were grown to confluence and infected with bacteria at an MOI (multiplicity of infection) of 50. […] Following bacterial adhesion and invasion, the cells were incubated with varying concentrations of the hit compounds and intracellular bacterial growth was tracked by measuring green fluorescence.
The cells were split using trypsin, seeded in 96-well plates for infection, and grown to confluence, corresponding to approximately 40,000 cells per well.
A single colony of S. flexneri was inoculated into TSB supplemented with 50 μg/ml spectinomycin and incubated overnight at 37°C with agitation. The overnight culture was diluted 1:200 in fresh TSB, and the bacteria were grown at 37 °C until the OD600 reached 0.3–0.4, corresponding to approximately 2 × 10^7 CFU/ml. Bacteria were pelleted by centrifugation, washed twice with sterile PBS, and resuspended in infection solution (serum-free DMEM supplemented with 20 mM HEPES, pH 7.4). Just prior to infection, the medium was withdrawn, and the cells were washed twice with sterile PBS. The bacterial inoculum (MOI 50, 2 × 10^7 CFU/ml) was added to all wells except the no-infection control. The plates were incubated at room temperature for 15 min to allow bacterial adhesion, followed by a 1 h incubation at 37 °C with 5% CO2 to facilitate bacterial invasion.
Twofold serial dilutions of the drugs were prepared in infection solution containing 50 μg/ml gentamicin in a 96-well plate. After the invasion period, the bacterial inoculum was removed, and the serial dilutions of the drugs were added to the wells, except for the no-drug control. […] […] The experiments were performed in triplicates on separate days.
Statistical significance of the drug effects was assessed using a one-way ANOVA followed by Dunnett’s test, comparing each treatment to the drug-free control. Statistical significance of the differences in chemical characteristics between the hit compounds and the Prestwick library was assessed using a Mann–Whitney test. Statistical significance was set at P ≤ 0.05. A five-parameter logistic equation was used for asymmetric sigmoidal curve fitting and for EC50 and IC50 determination. The Venn diagram in Fig. 1F was prepared using BioVenn web application. Characteristics of the chemical and physical properties of Prestwick library compounds were obtained from Supplementary Table S1 from reference. Characteristics of the hit compounds not included in the Prestwick library were retrieved from the PubChem database.

[2] = E. coli in 1:4 CA-MHB (pH 7.4), 0.25 μM
[3] = E. coli in 1:4 CA-MHB (pH 7.4), 0.5 μM
[4] = E. coli in 1:4 CA-MHB (pH 7.4), 1 μM
[5] = E. coli in 1:4 CA-MHB (pH 7.4), 2.5 μM
[6] = E. coli in 1:4 CA-MHB (pH 7.4), 5 μM
[7] = E. coli in 1:4 CA-MHB (pH 7.4), 10 μM
[8] = E. coli in LPM (pH 5.5), 0.25 μM
[9] = E. coli in LPM (pH 5.5), 0.5 μM
[10] = E. coli in LPM (pH 5.5), 2.5 μM

## CS[C@H]1SC[C@H]2C(=O)N(C)[C@@H](C(C)C)C(=O)OC[C@@H](NC(=O)c3cnc4ccccc4n3)C(=O)N[C@@H](C)C(=O)N(C)[C@@H]1C(=O)N(C)[C@@H](C(C)C)C(=O)OC[C@@H](NC(=O)c1cnc3ccccc3n1)C(=O)N[C@@H](C)C(=O)N2C [Echinomycin]
non-growing UPEC CFT073; [2]
  Log10(CFU/ml), Replicate #1: 9.431 Log10(CFU/ml)
  Log10(CFU/ml), Replicate #2: 8.699 Log10(CFU/ml)
  Log10(CFU/ml), Replicate #3: 8.505 Log10(CFU/ml)
non-growing UPEC CFT073; E. coli in 1:4 CA-MHB (pH 7.4), 0.25 μM, average killing vs before treatment (8.977)
  Δlog10(CFU/ml): 0.099 log10(CFU/ml)
non-growing UPEC CFT073; [3]
  Log10(CFU/ml), Replicate #1: 9.415 Log10(CFU/ml)
  Log10(CFU/ml), Replicate #2: 9.079 Log10(CFU/ml)
  Log10(CFU/ml), Replicate #3: 8.447 Log10(CFU/ml)
non-growing UPEC CFT073; E. coli in 1:4 CA-MHB (pH 7.4), 0.5 μM, average killing vs before treatment (8.977)
  Δlog10(CFU/ml): -0.003 log10(CFU/ml)
non-growing UPEC CFT073; [4]
  Log10(CFU/ml), Replicate #1: 9.380 Log10(CFU/ml)
  Log10(CFU/ml), Replicate #2: 9.114 Log10(CFU/ml)
  Log10(CFU/ml), Replicate #3: 8.398 Log10(CFU/ml)
non-growing UPEC CFT073; E. coli in 1:4 CA-MHB (pH 7.4), 1 μM, average killing vs before treatment (8.977)
  Δlog10(CFU/ml): 0.013 log10(CFU/ml)
non-growing UPEC CFT073; [5]
  Log10(CFU/ml), Replicate #1: 9.398 Log10(CFU/ml)
  Log10(CFU/ml), Replicate #2: 8.699 Log10(CFU/ml)
  Log10(CFU/ml), Replicate #3: 8.398 Log10(CFU/ml)
non-growing UPEC CFT073; E. coli in 1:4 CA-MHB (pH 7.4), 2.5 μM, average killing vs before treatment (8.977)
  Δlog10(CFU/ml): 0.146 log10(CFU/ml)
non-growing UPEC CFT073; [6]
  Log10(CFU/ml), Replicate #1: 9.362 Log10(CFU/ml)
  Log10(CFU/ml), Replicate #2: 8.477 Log10(CFU/ml)
  Log10(CFU/ml), Replicate #3: 8.477 Log10(CFU/ml)
non-growing UPEC CFT073; E. coli in 1:4 CA-MHB (pH 7.4), 5 μM, average killing vs before treatment (8.977)
  Δlog10(CFU/ml): 0.205 log10(CFU/ml)
non-growing UPEC CFT073; [7]
  Log10(CFU/ml), Replicate #1: 8.342 Log10(CFU/ml)
  Log10(CFU/ml), Replicate #2: 8.079 Log10(CFU/ml)
  Log10(CFU/ml), Replicate #3: 8.342 Log10(CFU/ml)
non-growing UPEC CFT073; E. coli in 1:4 CA-MHB (pH 7.4), 10 μM, average killing vs before treatment (8.977)
  Δlog10(CFU/ml): 0.723 log10(CFU/ml)
non-growing UPEC CFT073; [8]
  Log10(CFU/ml), Replicate #1: 6.778 Log10(CFU/ml)
  Log10(CFU/ml), Replicate #2: 7.114 Log10(CFU/ml)
  Log10(CFU/ml), Replicate #3: 8.398 Log10(CFU/ml)
non-growing UPEC CFT073; E. coli in LPM (pH 5.5), 0.25 μM, average killing vs before treatment (7.350)
  Δlog10(CFU/ml): -0.080 log10(CFU/ml)
non-growing UPEC CFT073; [9]
  Log10(CFU/ml), Replicate #1: 6.954 Log10(CFU/ml)
  Log10(CFU/ml), Replicate #2: 6.954 Log10(CFU/ml)
  Log10(CFU/ml), Replicate #3: 8.000 Log10(CFU/ml)
non-growing UPEC CFT073; E. coli in LPM (pH 5.5), 0.5 μM, average killing vs before treatment (7.350)
  Δlog10(CFU/ml): 0.048 log10(CFU/ml)
non-growing UPEC CFT073; E. coli in LPM (pH 5.5), 1 μM
  Log10(CFU/ml), Replicate #1: 6.954 Log10(CFU/ml)
  Log10(CFU/ml), Replicate #2: 7.255 Log10(CFU/ml)
  Log10(CFU/ml), Replicate #3: 8.301 Log10(CFU/ml)
non-growing UPEC CFT073; E. coli in LPM (pH 5.5), 1 μM, average killing vs before treatment (7.350)
  Δlog10(CFU/ml): -0.153 log10(CFU/ml)
non-growing UPEC CFT073; [10]
  Log10(CFU/ml), Replicate #1: 6.954 Log10(CFU/ml)
  Log10(CFU/ml), Replicate #2: 6.845 Log10(CFU/ml)
  Log10(CFU/ml), Replicate #3: 8.230 Log10(CFU/ml)
non-growing UPEC CFT073; E. coli in LPM (pH 5.5), 2.5 μM, average killing vs before treatment (7.350)
  Δlog10(CFU/ml): 0.007 log10(CFU/ml)
non-growing UPEC CFT073; E. coli in LPM (pH 5.5), 5 μM
  Log10(CFU/ml), Replicate #1: 6.778 Log10(CFU/ml)
  Log10(CFU/ml), Replicate #2: 7.342 Log10(CFU/ml)
  Log10(CFU/ml), Replicate #3: 8.204 Log10(CFU/ml)
non-growing UPEC CFT073; E. coli in LPM (pH 5.5), 5 μM, average killing vs before treatment (7.350)
  Δlog10(CFU/ml): -0.091 log10(CFU/ml)
non-growing UPEC CFT073; E. coli in LPM (pH 5.5), 10 μM
  Log10(CFU/ml), Replicate #1: 6.279 Log10(CFU/ml)
  Log10(CFU/ml), Replicate #2: 6.362 Log10(CFU/ml)
  Log10(CFU/ml), Replicate #3: 6.602 Log10(CFU/ml)
non-growing UPEC CFT073; E. coli in LPM (pH 5.5), 10 μM, average killing vs before treatment (7.350)
  Δlog10(CFU/ml): 0.936 log10(CFU/ml)

## CCN1CCN(c2cc3c(cc2F)c(=O)c(C(=O)O)cn3C2CC2)CC1 [Enrofloxacin]
[1]; Shigella flexneri, TC7, 14 h
  IC50: 36 nM
[1]; TC7 cells infected with GFP-expressing S. flexneri, 14 h treatment, 0.125 x MIC
  Fluorescence intensity (RFU), Mean, 0.125 x MIC: 8510.46 RFU
[1]; TC7 cells infected with GFP-expressing S. flexneri, 14 h treatment, 0.25 x MIC
  Fluorescence intensity (RFU), Mean, 0.25 x MIC: 7346.62 RFU
[1]; TC7 cells infected with GFP-expressing S. flexneri, 14 h treatment, 0.5 x MIC
  Fluorescence intensity (RFU), Mean, 0.5 x MIC: 6043.88 RFU
[1]; TC7 cells infected with GFP-expressing S. flexneri, 14 h treatment, 2 x MIC
  Fluorescence intensity (RFU), Mean, 2 x MIC: 2710.72 RFU
[1]; TC7 cells infected with GFP-expressing S. flexneri, 14 h treatment, 4 x MIC
  Fluorescence intensity (RFU), Mean, 4 x MIC: 1953.94 RFU
[1]; TC7 cells infected with GFP-expressing S. flexneri, 14 h treatment, 8 x MIC
  Fluorescence intensity (RFU), Mean, 8 x MIC: 1617.72 RFU
[1]; TC7 cells infected with GFP-expressing S. flexneri, 14 h treatment, 16 x MIC
  Fluorescence intensity (RFU), Mean, 16 x MIC: 1488.39 RFU
[1]; TC7 cells infected with GFP-expressing S. flexneri, 14 h treatment, 32 x MIC
  Fluorescence intensity (RFU), Mean, 32 x MIC: 1501.89 RFU
[1]; TC7 cells infected with GFP-expressing S. flexneri, 14 h treatment, MIC
  Fluorescence intensity (RFU), Mean, MIC: 3054.19 RFU
